In brackets after ≈: the same amount, converted by molar mass.
Experiments:
[1] = tested on: Mycobacterium tuberculosis; assay: Antimycobacterial activity Mycobacterium tuberculosis H37Rv assessed as growth inhibition measured at day 7 by broth microdilution method; format: functional; conditions: 168 h
[2] = Selectivity index, ratio of IC50 for rat L6 cells to IC50 for Plasmodium falciparum K1 by [3H] hypoxanthine uptake inhibition assay; format: toxicity, cell-based; conditions: rat L6 cells versus Plasmodium falciparum K1, read-out: Ratio IC50
L6 = assay: Cytotoxicity against rat L6 cells after 72 hrs by fluorometric analysis; format: cell-based; conditions: L6, 72 h
Plasmodium falciparum = assay: Antimalarial activity against Plasmodium falciparum K1 assessed as inhibition of [3H] hypoxanthine uptake by liquid scintillation counting; format: functional, organism-based

| Compound | MIC99 [1] [µM] | selectivity ratio [2] | IC50 (L6) [µM] | IC50 (Plasmodium falciparum) [µM] |
| --- | --- | --- | --- | --- |
| CC(C)(C)n1nnnc1C(NCCNc1ccnc2cc(Cl)ccc12)c1ccc(CO[C@@H]2COc3nc([N+](=O)[O-])cn3C2)cc1 (some centres undefined) | 0.313 (≈ 0.198 µg/mL) | 246 | 24.6 | 0.1 |
| CC(C)(C)n1nnnc1C(NCCCNc1ccnc2cc(Cl)ccc12)c1ccc(CO[C@@H]2COc3nc([N+](=O)[O-])cn3C2)cc1 (some centres undefined) |  | 85 | 41.5 | 0.485 |
| CC(C)(C)n1nnnc1C(NCCCCNc1ccnc2cc(Cl)ccc12)c1ccc(CO[C@@H]2COc3nc([N+](=O)[O-])cn3C2)cc1 (some centres undefined) | 0.625 (≈ 0.413 µg/mL) | 175 | 29.3 | 0.164 |
| COc1cc(NC(C)CCCNC(c2ccc(CO[C@@H]3COc4nc([N+](=O)[O-])cn4C3)cc2)c2nnnn2C(C)(C)C)c2ncccc2c1 (some centres undefined) | 0.625 (≈ 0.419 µg/mL) | 37 | 75.9 | 2.04 |
| COc1cc(NC(C)CCCNC(c2cccc(CO[C@@H]3COc4nc([N+](=O)[O-])cn4C3)c2)c2nnnn2C(C)(C)C)c2ncccc2c1 (some centres undefined) | 5 (≈ 3.35 µg/mL) | 145 | 143 | 0.985 |
| CN(CCO)CCNc1ccnc2cc(Cl)ccc12 | > 160 | 995 | 77.6 | 0.078 |
| CN(CCO)CCCNc1ccnc2cc(Cl)ccc12 | > 160 | 63 | 24.8 | 0.391 |
| O=[N+]([O-])c1cn2c(n1)OC[C@@H](OCCCNc1ccnc3cc(Cl)ccc13)C2 | 1.25 (≈ 0.505 µg/mL) | 12.8 | 134 | 10.5 |
| O=Cc1ccc(CO[C@@H]2COc3nc([N+](=O)[O-])cn3C2)cc1 | 0.25 (≈ 0.0758 µg/mL) |  |  |  |
| O=Cc1cccc(CO[C@@H]2COc3nc([N+](=O)[O-])cn3C2)c1 | 0.625 (≈ 0.19 µg/mL) | 0.54 | 34.3 | 62.6 |
| CN(C)C(c1ccc(CO[C@@H]2COc3nc([N+](=O)[O-])cn3C2)cc1)c1nnnn1C(C)(C)C (some centres undefined) | 0.625 (≈ 0.285 µg/mL) | 11.2 | 177 | 15.8 |
| CCN(CC)C(c1ccc(CO[C@@H]2COc3nc([N+](=O)[O-])cn3C2)cc1)c1nnnn1C(C)(C)C (some centres undefined) | 0.313 (≈ 0.152 µg/mL) | 14.2 | 113 | 7.95 |
| CC(C)(C)n1nnnc1C(c1ccc(CO[C@@H]2COc3nc([N+](=O)[O-])cn3C2)cc1)N1CCCC1 (some centres undefined) | 0.313 (≈ 0.151 µg/mL) | 8.65 | 75.2 | 8.7 |
| OCCNc1ccnc2cc(Cl)ccc12 | > 160 | 159 | 233 | 1.47 |
| OCCCNc1ccnc2cc(Cl)ccc12 | > 160 | 164 | 178 | 1.09 |
| O=[N+]([O-])c1cn2c(n1)OC[C@@H](O)C2 | 40 (≈ 7.41 µg/mL) |  | 331 | > 270 |
| NCCNc1ccnc2cc(Cl)ccc12 | > 160 | 71.2 | 21.2 | 0.298 |
| CCN(CC)CCCC(C)Nc1ccnc2cc(Cl)ccc12 (centres undefined) [CHLOROQUINE] | > 160 |  |  |  |
| NC[C@H]1O[C@H](O[C@H]2[C@H](O)[C@@H](O[C@H]3O[C@H](CO)[C@@H](O)[C@H](N)[C@H]3O)[C@H](N)C[C@@H]2N)[C@H](O)[C@@H](O)[C@@H]1O [KANAMYCIN] | 5.4 (≈ 2.62 µg/mL) |  |  |  |
| COc1cc([C@@H]2c3cc4c(cc3[C@H](O)[C@H]3COC(=O)[C@H]23)OCO4)cc(OC)c1OC [PODOFILOX] |  |  | 0.0193 |  |
| COc1cc(NC(C)CCCN)c2ncccc2c1 (centres undefined) [PRIMAQUINE] | 80 (≈ 20.7 µg/mL) |  |  | 0.643 |
| CN[C@@H]1[C@H](O[C@H]2[C@H](O[C@H]3[C@H](O)[C@@H](O)[C@H](N=C(N)N)[C@@H](O)[C@@H]3N=C(N)N)O[C@@H](C)[C@]2(O)C=O)O[C@@H](CO)[C@H](O)[C@H]1O [STREPTOMYCIN] | 0.27 (≈ 0.157 µg/mL) |  |  |  |

— ChEMBL document CHEMBL2331487, “Synthesis and antiplasmodial and antimycobacterial evaluation of new nitroimidazole and nitroimidazooxazine derivatives” (ACS Med Chem Lett, 2013)
